According to patent US3932512A, “Antiviral 1,2,3,4-tetrahydro-1,-alkano naphthalenamine derivatives” (priority 1972, dated 1976):
Where two headings read alike, the source gives them in different places.

How the values were obtained:
[1] = cytotoxicity in G-2 cells; format: cell-based; settings: human; for CC50: 50% inhibition of cell growth, read-out: Cytotoxicity CTD50; for MNTC: maximal non-toxic concentration, read-out: Cytotoxicity CTD0
Procedure: In preparing the compounds for testing, they were handled aseptically throughout. The compounds were dissolved in a minimum amount of a suitable solvent and the final dilutions were made up to the required volume in a complete culture medium used in assay and in concentration not exceeding the predetermined maximum non-toxic levels.
The cell culture used in all primary in vitro anti-myxovirus assays was an established cell line of the human conjunctiva (G-2 cells). The cytotoxic studies of each of the compounds were performed prior to testing for antiviral activity to determine level of response of the cells to the potentially toxic action of the compounds.

[2] = tested on: Influenza (swine); test: cells; format: cell-based; settings: for inhibition at 30 µg/mL: 30 μg/ml; for inhibition at 80 µg/mL: 80 μg/ml; for inhibition at 100 µg/mL: 100 μg/ml
[3] = tested on: Influenza A2 /Aichi/3/68; test: in vitro anti-myxovirus activity, influenza A2 /Aichi/3/68, G-2 cells (% inhibition of hemadsorption); format: cell-based, Influenza A2 /Aichi/3/68 (human); settings: for inhibition at 40 µg/mL: 40 μg/ml; for inhibition at 10 µg/mL: 10 μg/ml; for inhibition at 20 µg/mL: 20 μg/ml; for inhibition at 30 µg/mL: 30 μg/ml; for inhibition at 50 µg/mL: 50 μg/ml; for inhibition at 60 µg/mL: 60 μg/ml; for inhibition at 70 µg/mL: 70 μg/ml; for inhibition at 80 µg/mL: 80 μg/ml; for inhibition at 90 µg/mL: 90 μg/ml; for inhibition at 100 µg/mL: 100 μg/ml
[4] = tested on: mice; test: toxicity of in vitro active anti-myxovirus compounds in mice; settings: for Maximal non-toxic dose LD0, acute / Maximal non-toxic dose LD0, subacute: I/P; for toxicity compared with Amantadine or compound I: words
[5] = as above; settings: mouse, in vivo, ip, I/P
[6] = Homo sapiens, 100 TCID50, read-out: % Inhibition
[7] = 50% toxic dose LD50, acute, acute
[8] = 50% toxic dose LD50, subacute, subacute

Structure (SMILES) | CC50 [1] [µg/mL] | MNTC [1] [µg/mL] | inhibition at 30 µg/mL [2] [%] | inhibition at 40 µg/mL ([2]; 40 μg/ml) [%] | inhibition at 50 µg/mL ([2]; 50 μg/ml) [%] | inhibition at 60 µg/mL ([2]; 60 μg/ml) [%] | inhibition at 80 µg/mL [2] [%] | inhibition at 100 µg/mL [2] [%] | inhibition at 40 µg/mL ([3]; 100 TCID50) [%] | inhibition at 30 µg/mL ([3]; Homo sapiens, 100 TCID50) [%] | inhibition at 50 µg/mL ([3]; Homo sapiens, 100 TCID50) [%] | inhibition at 60 µg/mL ([3]; Homo sapiens, 100 TCID50) [%] | inhibition at 70 µg/mL ([3]; Homo sapiens, 100 TCID50) [%] | inhibition at 80 µg/mL ([3]; Homo sapiens, 100 TCID50) [%] | inhibition at 90 µg/mL ([3]; Homo sapiens, 100 TCID50) [%] | inhibition at 100 µg/mL [3, 6] [%] | Maximal non-toxic dose LD0, acute [4] [mg/kg] | Maximal non-toxic dose LD0, subacute [4] [mg/kg] | toxicity compared with Amantadine or compound I [4] | LD50 [5, 7] [mg/kg] | other results
NC1C2CCC(c3ccccc32)C1N (stereo not drawn) [Compound VII, 1,2,3,4-tetrahydro-1,4-ethanonaphthalen-exo-3-endo-2-diamine] | > 100 | > 100 | 90 | 97 | 100 | 100 | 100 | 100 | 30 | 20 | 67 | 80 | 57 | 60 | 80 | 83 | 700 | 700 | far less toxic than either the known antiviral agent Amantadine or compound I | 775 to 800 | inhibition at 10 µg/mL ([2]; 10 μg/ml): 0%; inhibition at 20 µg/mL ([2]; 20 μg/ml): 56%; % Inhibition ([2]; 20 μg/ml, listed as 1,2,3,4-TETRAHYDRO-1,4-[…]-EXO-3-ENDO-2-DIAMINE.2HCl): 70%; inhibition at 40 µg/mL ([3]; 31.6 TCID50): 87%; inhibition at 10 µg/mL ([3]; Homo sapiens, 31.6 TCID50): 0%; inhibition at 10 µg/mL ([3]; Homo sapiens, 100 TCID50): 0%; inhibition at 20 µg/mL ([3]; Homo sapiens, 31.6 TCID50): 7%; inhibition at 20 µg/mL ([3]; Homo sapiens, 100 TCID50): 0%; inhibition at 30 µg/mL ([3]; Homo sapiens, 31.6 TCID50): 60%; inhibition at 50 µg/mL ([3]; Homo sapiens, 31.6 TCID50): 95%; inhibition at 60 µg/mL ([3]; Homo sapiens, 31.6 TCID50): 100%; inhibition at 70 µg/mL ([3]; Homo sapiens, 31.6 TCID50): 100%; inhibition at 80 µg/mL ([3]; Homo sapiens, 31.6 TCID50): 100%; inhibition at 90 µg/mL ([3]; Homo sapiens, 31.6 TCID50): 100%; inhibition at 100 µg/mL ([3]; Homo sapiens, 31.6 TCID50, read-out: % Inhibition): 100%; LD50 [5, 8]: 800 mg/kg
CN(C)C[C@H]1[C@H](N)[C@H]2C[C@@H]1c1ccccc12 (relative stereo) [Compound III, 1,2,3,4-tetrahydro-1,4-methanonaphthalen-exo-3-dimethylaminomethyl-endo-2-amine] | > 100 | > 100 | – | – | – | – | – | – | – | – | – | – | – | – | – | 90 | 500 | 250 | far less toxic than either the known antiviral agent Amantadine or compound I | 750 | inhibition at 33.3 µg/mL ([3]; Homo sapiens, 33.3 μg/ml, 100 TCID50): 3%; inhibition at 66.7 µg/mL ([3]; Homo sapiens, 66.7 μg/ml, 100 TCID50): 87%; LD50 [5, 8]: 500 to 750 mg/kg
NC12CC3CC(CC(C3)C1)C2 [Amantadine, reference compound] | > 100 | > 100 | 0 | 10 | 67 | 83 | 100 | 100 | 0 | 0 | 0 | 0 | 33 | 27 | 67 | – | 175 | 150 | – | – | % Inhibition ([2]; 40 μg/ml, listed as AMANTADINE HYDROCHLORIDE): 17%; % Inhibition ([2]; 50 μg/ml, listed as AMANTADINE HYDROCHLORIDE): 80%; % Inhibition ([2]; 60 μg/ml, listed as AMANTADINE HYDROCHLORIDE): 90%; inhibition at 70 µg/mL ([2]; 70 μg/ml): 97%; % Inhibition ([2]; 70 μg/ml, listed as AMANTADINE HYDROCHLORIDE): 93%; inhibition at 90 µg/mL ([2]; 90 μg/ml): 100%; inhibition at 40 µg/mL ([3]; 56.2 TCID50): 0%; inhibition at 30 µg/mL ([3]; Homo sapiens, 56.2 TCID50): 0%; inhibition at 50 µg/mL ([3]; Homo sapiens, 56.2 TCID50): 0%; inhibition at 60 µg/mL ([3]; Homo sapiens, 56.2 TCID50): 53%; inhibition at 70 µg/mL ([3]; Homo sapiens, 56.2 TCID50): 83%; inhibition at 80 µg/mL ([3]; Homo sapiens, 56.2 TCID50): 70%; inhibition at 90 µg/mL ([3]; Homo sapiens, 56.2 TCID50): 97%; inhibition at 100 µg/mL ([3]; Homo sapiens, 56.2 TCID50): 87%; inhibition at 100 µg/mL ([3]; Homo sapiens, 100 TCID50): 43%
